# Measured values reported in US9220771B2, “Peptide for use in the treatment of breast cancer and/or bone metastases” (MERCK PATENT GMBH, priority 2010, dated 2015).
# Key:
# [1] = system: MDA-MB468 human breast tumour cells; experiment: Study 007: MDA-MB-468 orthotopic primary tumor growth; format: in vivo, female BALB/c nu/nu mice; details: all three dosing groups (75, 150 or 300 mg/kg), daily s.c.; Vehicle Control higher than 350 mm^3
# Procedure: MDA-MB468 human breast tumour cells were orthotopically inoculated into the third mammary fat pad of female BALB/c nu/nu mice. The mice were randomised into groups when the tumors reached a size of approximately 40 mm^3.
# The mice in each group received treatment with either Vehicle Control (Placebo) or EMD 121974 (75, 150 or 300 mg/kg) by daily subcutaneous injection. Body weight and tumour volume measurements were made for all mice three times per week.
# [2] = system: MDA-MB-231 breast cancer bone metastases; experiment: DCE-MRI of experimental breast cancer bone metastases (amplitude A, exchange rate constant kep); format: in vivo, nude rats (RNU strain); details: cilengitide 75 mg/kg
# Procedure: T2-weighted imaging is performed using a turbo spin echo sequence (orientation axial, TR 3240 ms, TE 81 ms, matrix 152×256, FOV 90×53.4 mm^2, slice thickness 1.5 mm, 3 averages, scan time 3 min 40 s). For dynamic contrast-enhanced MRI, a saturation recovery turbo flash sequence through the largest diameter of the tumor (orientation axial, TR 373 ms, TE 1.86 ms, matrix 192×144, FOV 130×97.5 mm, slice thickness 5 mm, measurements 512, averages 1, scan time 6 min 55 s) is used. After 20 s baseline, 0.1 mmol/kg Gd-DTPA (Magnevist; Bayer Schering Pharma, Berlin, Germany) is intravenously infused for a time period of 10 s.
# Unenhanced VCT images and MRI-acquired T2-weighted images are analyzed using the Medical Imaging Interaction Toolkit (MITK, Heidelberg, Germany) to determine volumes of osteolytic lesions and soft tissue components, respectively. DCE-MRI acquired data is analyzed using the Dynalab workstation (Mevis Research, Bremen, Germany) according to the two-compartment model of Brix to determine the parameters amplitude A and exchange rate constant kep, as described.^23, 30 Briefly, the injected contrast media is distributed in both compartments (intravascular space and extravascular, interstitial space). The accumulation of contrast agent in these compartments over time is characterized by the amplitude A (associated with blood volume), whereas the exchange of contrast agent between the intravascular space and the interstitial space is characterized by the exchange rate constant kep (associated with vessel permeability). For determination of the respective values of the amplitude A and kep of bone metastases in our study, a region of interest is placed around the soft tissue component on color maps for A and kep, respectively, using the Dynalab workstation (Mevis Research, Bremen, Germany).
# For each animal, volumes of the osteolysis and soft tissue component, amplitude A and exchange rate constant kep are plotted versus time after tumor cell inoculation (due to technical reasons one animal of the control group can not be evaluated for the amplitude A and kep). Normalization of the data to the corresponding initial value at day 30 for each animal is performed and changes are expressed in percent. For statistical comparisons of data from non-invasive imaging and histological analysis, the respective values are compared between the control and treatment groups using the two-sided Wilcoxon-Test; p-values <0.05 are considered significant.
# [3] = system: Patients With Newly Diagnosed Glioblastoma (GBM); experiment: Phase I/IIa trial of Cilengitide and temozolomide with concomitant radiotherapy; format: in vivo, human
# Procedure: Purpose: To evaluate safety, toxicity, and efficacy of the combination of the cyclic RGD pentapeptide Cilengitide (=cyclo-(Arg-Gly-Asp-DPhe-NMe-Val)), an inhibitor of integrins αvβ3 and αvβ5, in addition to standard temozolomide (TMZ) and radiotherapy (RT).
# Patients and methods: Fifty-two pts (PS 0-1: 92%, 2: 8%; median age 57 yrs) after biopsy (n=9/17%) or tumor resection (n=43/83%) were treated with standard TMZ/RT (Stupp et al. NEJM 2005). In addition Cilengitide (500 mg i.v., 2×/week) was started one week before TMZ/RT and given throughout for the duration of chemotherapy or until progression. Primary endpoint was progression free survival rate at 6 months (target: 65%). Patients were followed with MRI every 2 months. Histopathologic diagnosis and MRI imaging were independently reviewed, MGMT promotor methylation status was assessed in 45 (86.5%) pts.
# [4] = system: U251 human glioblastoma cells; experiment: Rat orthotopic glioblastoma model, radiotherapy and cilengitide scheduling, survival; format: in vivo, NIH rnu nude rats; details: t-4 and t-8 h groups, cilengitide 4 mg/kg + 25 Gy
# Procedure: NIH rnu nude rats are anaesthetized, restrained, and injected intracerebrally 1 mm retro orbitally, 3 mm to the right of the bregma and at a depth of 2.5 mm with 5×10E5 U251 human glioblastoma cells suspended in 10 ul of culture medium, using a #2701 Hamilton syringe fitted with a 26 gauge needle, essentially as previously described (Engebraaten et al., 1999). After 14 days, cilengitide (4 mg/kg) is given as an intraperitoneal bolus in PBS, at various time (8 h, 4 h, 2 h, 1 h) prior to a single treatment with single, collimated, dorsal-ventral beam of 6 MV x-rays, so that 95-100% of the central axis dose of 25 Gy hit the tumor volume (Kim et al., 1999). Each of the 7 subsequent days the animals also received an identical i.p. bolus of cilengitide. The animals are maintained under ad libitum food and drink until they become moribund, or are sampled for tissue analysis (in the t-4 and t-8 h groups, where the animals are healthy past 230 days post tumor injection). A Kaplan-Meier survival curve is calculated and plotted (FIG. 7) from the raw data (Table 2). All animals in the RT monotherapy group died by 120 d.
# [5] = Cilengitide 500 mg i.v. 2x/week with TMZ/RT, of 52 patients
smiles,measurement,setting,value
"CC(C)[C@H]1C(=O)N[C@@H](CCCN=C(N)N)C(=O)NCC(=O)N[C@@H](CC(=O)O)C(=O)N[C@H](Cc2ccccc2)C(=O)N1C [Cilengitide, cyclo-(Arg-Gly-Asp-DPhe-NMeVal)]",tumour volume on day 60,[1],below 200 mm^3
same,"DCE-MRI amplitude A (associated with blood volume), mean relative value","[2]; day 35, p>0.05 vs control",97 % of initial value
same,"DCE-MRI exchange rate constant kep (associated with vessel permeability), mean relative value","[2]; day 35, p>0.05 vs control",69 % of initial value
same,"DCE-MRI amplitude A (associated with blood volume), mean relative value","[2]; day 45, p<0.05 vs control",102 % of initial value
same,"DCE-MRI exchange rate constant kep (associated with vessel permeability), mean relative value","[2]; day 45, p>0.05 vs control",88 % of initial value
same,"DCE-MRI amplitude A (associated with blood volume), mean relative value","[2]; day 55, p<0.05 vs control",93 % of initial value
same,"DCE-MRI exchange rate constant kep (associated with vessel permeability), mean relative value","[2]; day 55, p<0.05 vs control",72 % of initial value
same,treatment related non-hematologic grade 3 toxicities,"[3]; Cilengitide 500 mg i.v. 2x/week with TMZ/RT, 3/52 patients",5.7%
same,"grade 3 constitutional symptoms (asthenia, fatigue, anorexia)",[3]; [5],3 n
same,grade 3 deep venous thrombosis and pulmonary embolism,[3]; [5],1 n
same,grade 3 elevated liver function tests,[3]; [5],1 n
same,tolerability of the combination,[3]; Cilengitide and TMZ/RT,well tolerated
same,time animals are healthy post tumor injection,[4],> 230 days
